Data published in patent publication US20110039762A1, “TARGETED ANTIMICROBIAL MOIETIES” (C3 JIAN, INC., priority 2009, published 2011).
“Also recorded” adds a separate entry of the source.

How the values were obtained:
[1] = system: microorganisms (e.g., bacteria, yeasts, fungi); assay: Targeting peptide binding to target microorganisms (Table 3); conditions: microorganism(s) the targeting peptide binds, preferably 1x PBS
E. coli = assay: Kill or inhibit growth/proliferation; morphology, biofilm and growth disruption (Tables 5, 6); format: cell-based, Escherichia coli; parameters: key: A: Peptide aggregates; B: Less hyphal formation; Clumps; Diffuse clumps and small polyps; F: Diffuse growth; H: Thin; I: Growth inhibition; Microcolony formation; Rippled; Small polyps; Thick; W: Halo formation on top, microlonies on bottom; note: test concentration or dose not given here
microorganisms = assay: Peptides having multiple activities (targeting/binding, antimicrobial, growth or phenotype altering)
Source text: In certain embodiments, peptides described herein can have multiple activities. Thus for example, a peptide can have both binding/targeting activity and antimicrobial activity. Such peptides can be used, e.g., in a chimeric construct, for any or all of these properties. Thus, for example, a peptide designated “B” in Table 8 can be used as a targeting peptide. If it is also designated G or M it can also be used for antimicrobial activity.

MRSA = assay: Kill or inhibit growth/proliferation; morphology, biofilm and growth disruption (Tables 5, 6); format: cell-based, Methicillin-resistant Staphylococcus aureus; parameters: key: A: Peptide aggregates; B: Less hyphal formation; Clumps; Diffuse clumps and small polyps; F: Diffuse growth; H: Thin; I: Growth inhibition; Microcolony formation; Rippled; Small polyps; Thick; W: Halo formation on top, microlonies on bottom; note: test concentration or dose not given here
S. epidermidis = assay: as above; format: cell-based, Staphylococcus epidermidis; parameters: key: A: Peptide aggregates; B: Less hyphal formation; Clumps; Diffuse clumps and small polyps; F: Diffuse growth; H: Thin; I: Growth inhibition; Microcolony formation; Rippled; Small polyps; Thick; W: Halo formation on top, microlonies on bottom
E. faecalis = assay: as above; format: cell-based, Enterococcus faecalis; parameters: key: A: Peptide aggregates; B: Less hyphal formation; Clumps; Diffuse clumps and small polyps; F: Diffuse growth; H: Thin; I: Growth inhibition; Microcolony formation; Rippled; Small polyps; Thick; W: Halo formation on top, microlonies on bottom; note: test concentration or dose not given here
S. pneumoniae = assay: as above; format: cell-based, Streptococcus pneumoniae; parameters: key: A: Peptide aggregates; B: Less hyphal formation; Clumps; Diffuse clumps and small polyps; F: Diffuse growth; H: Thin; I: Growth inhibition; Microcolony formation; Rippled; Small polyps; Thick; W: Halo formation on top, microlonies on bottom; note: test concentration or dose not given here
[2] = peptide binding conducted in aqueous buffers varied by peptide solubility
Throughout, for Organism, effect: test concentration or dose not given here.

Substance | Target(s) [1, 2] | Organism, effect (E. coli) | Activities (microorganisms) | Organism, effect (MRSA) | Organism, effect (S. epidermidis) | Organism, effect (E. faecalis) | Organism, effect (S. pneumoniae) | Target(s) ([1]; binding in aqueous buffers depending on peptide solubility)
PF-401: peptide having multiple activities (YWLSRVTTGHSFAFEKPVPLSLTIK; Peptide with targeting and/or antimicrobial activity) | S. epidermidis and E. coli and P. aeruginosa and MRSA and E. faecalis and C. jejuni | E. coli (R) | G B | MRSA (C) | S. epidermidis (C) | E. faecalis (C) | – | –
PF-460: peptide having multiple activities (chain 1 MEHVLPFQNTPPNIVIIYKDFTHLKSITFS; chain 2 MEHVLPFQNTPPNIVIIYKDFTHLKSITFS; Peptide with targeting and/or antimicrobial activity) | – | E. coli (H) | G B | MRSA (C) | S. epidermidis (C) | E. faecalis (C) | S. pneumoniae (R) | –
PF-376: peptide having multiple activities (chain 1 MTVFEALMLAIAFATLIVKISNKNDKK; chain 2 MTVFEALMLAIAFATLIVKISNKNDKK; Peptide with targeting and/or antimicrobial activity) | – | E. coli (C) | G B | MRSA (C) | S. epidermidis (C) | E. faecalis (C) | – | –
PF-534 (KYFHLFYHNIIHYSKQHLSLKVDFKN; Peptide with targeting and/or antimicrobial activity) | – | E. coli (R) | – | MRSA (C) | S. epidermidis (C) | E. faecalis (C) | S. pneumoniae (R) | –
PF-381: peptide having multiple activities (chain 1 QGANPCQQVGFTVNDPDCRLAKTV; chain 2 QGANPCQQVGFTVNDPDCRLAKTV; Peptide with targeting and/or antimicrobial activity) | – | E. coli (R) | G B | MRSA (C) | S. epidermidis (C) | E. faecalis (C) | – | E. coli; also recorded: P. aeruginosa; also recorded: C. jejuni
PF-347: peptide having multiple activities (GIFTGVTVVVSLKHC; Peptide with targeting and/or antimicrobial activity) | – | E. coli (C) | G B | MRSA (C) | S. epidermidis (C) | E. faecalis (C) | – | –
PF-374: peptide having multiple activities (chain 1 HLFFVKGMFILCQKNQINDE; chain 2 HLFFVKGMFILCQKNQINDE; Peptide with targeting and/or antimicrobial activity) | – | E. coli (C) | G B | MRSA (M) | S. epidermidis (C) | E. faecalis (C) | – | –
PF-398: peptide having multiple activities (ILVVLAGILLVVLSYVGISKFKMNC; Peptide with targeting and/or antimicrobial activity) | – | E. coli (C) | G B | MRSA (C) | S. epidermidis (C) | E. faecalis (C) | – | –
PF-379: peptide having multiple activities (chain 1 VFVVLFIIYLASKLLTKLFPIKK; chain 2 VFVVLFIIYLASKLLTKLFPIKK; Peptide with targeting and/or antimicrobial activity) | – | E. coli (C) | G B | MRSA (C) | S. epidermidis (C) | E. faecalis (C) | – | –
PF-451: peptide having multiple activities (chain 1 MVNYIIGSYMLYREQNNNEALRKFDITLAM; chain 2 MVNYIIGSYMLYREQNNNEALRKFDITLAM; Peptide with targeting and/or antimicrobial activity) | – | E. coli (R) | G B | MRSA (C) | S. epidermidis (C) | E. faecalis (C) | S. pneumoniae (C) | –
PF-410: peptide having multiple activities (FALELIALCRNLFIVYFP; Peptide with targeting and/or antimicrobial activity) | – | E. coli (S) | G B | MRSA (M) | S. epidermidis (C) | E. faecalis (C) | – | –
PF-396: peptide having multiple activities (LIYTILASLGVLTVLQAILGREPKAVKA; Peptide with targeting and/or antimicrobial activity) | S. epidermidis; also recorded: E. coli; also recorded: P. aeruginosa; also recorded: C. albicans; also recorded: E. faecalis; also recorded: C. jeikeium | E. coli (C) | G B | MRSA (C) | S. epidermidis (S) | E. faecalis (C) | – | –
PF-386: peptide having multiple activities (chain 1 FTLTLITTIVAILNYKDKKK; chain 2 FTLTLITTIVAILNYKDKKK; Peptide with targeting and/or antimicrobial activity) | – | E. coli (C) | G B | MRSA (C) | S. epidermidis (C) | E. faecalis (C) | – | –
PF-514: peptide having multiple activities (chain 1 QRFYKLFYHIDLTNEQALKLFQVK; chain 2 QRFYKLFYHIDLTNEQALKLFQVK; Peptide with targeting and/or antimicrobial activity) | S. epidermidis and E. coli and P. aeruginosa and C. albicans and MRSA and S. pneumoniae and E. faecalis and C. jeikeium | E. coli (R) | G B | – | S. epidermidis (C) | E. faecalis (C) | S. pneumoniae (M) | –
PF-399: peptide having multiple activities (FPIISALLGAIICIAIYSFIVNRKA; Peptide with targeting and/or antimicrobial activity) | – | E. coli (C) | G B | MRSA (C) | S. epidermidis (C) | E. faecalis (C) | – | –
KTPNDKIHKTIIIKHIIL [PF-533] | – | E. coli (R) | – | MRSA (H) | S. epidermidis (H) | E. faecalis (C) | S. pneumoniae (C) | –
